For assay [1], the target named is T1, β-PDGFR (Homo sapiens, UniProt P09619). In words: MG63 phosphorylation assay (endogenous β-PDGFR phosphorylation, PDGF-BB stimulation with human plasma). The settings on record: MG63 human osteosarcoma cells; PDGF-BB stimulation in presence of 45% human plasma; PDGF receptor phosphorylation; read-out: MG63 w/human plasma IC50. Type of assay: cell-based. Also noted: This assay is for measuring endogenous β-PDGFR phosphorylation in MG63 cells; endogenous in cells; host or cells: MG63 human osteosarcoma cells (ATCC).
T1 sequence (P09619 33-1106): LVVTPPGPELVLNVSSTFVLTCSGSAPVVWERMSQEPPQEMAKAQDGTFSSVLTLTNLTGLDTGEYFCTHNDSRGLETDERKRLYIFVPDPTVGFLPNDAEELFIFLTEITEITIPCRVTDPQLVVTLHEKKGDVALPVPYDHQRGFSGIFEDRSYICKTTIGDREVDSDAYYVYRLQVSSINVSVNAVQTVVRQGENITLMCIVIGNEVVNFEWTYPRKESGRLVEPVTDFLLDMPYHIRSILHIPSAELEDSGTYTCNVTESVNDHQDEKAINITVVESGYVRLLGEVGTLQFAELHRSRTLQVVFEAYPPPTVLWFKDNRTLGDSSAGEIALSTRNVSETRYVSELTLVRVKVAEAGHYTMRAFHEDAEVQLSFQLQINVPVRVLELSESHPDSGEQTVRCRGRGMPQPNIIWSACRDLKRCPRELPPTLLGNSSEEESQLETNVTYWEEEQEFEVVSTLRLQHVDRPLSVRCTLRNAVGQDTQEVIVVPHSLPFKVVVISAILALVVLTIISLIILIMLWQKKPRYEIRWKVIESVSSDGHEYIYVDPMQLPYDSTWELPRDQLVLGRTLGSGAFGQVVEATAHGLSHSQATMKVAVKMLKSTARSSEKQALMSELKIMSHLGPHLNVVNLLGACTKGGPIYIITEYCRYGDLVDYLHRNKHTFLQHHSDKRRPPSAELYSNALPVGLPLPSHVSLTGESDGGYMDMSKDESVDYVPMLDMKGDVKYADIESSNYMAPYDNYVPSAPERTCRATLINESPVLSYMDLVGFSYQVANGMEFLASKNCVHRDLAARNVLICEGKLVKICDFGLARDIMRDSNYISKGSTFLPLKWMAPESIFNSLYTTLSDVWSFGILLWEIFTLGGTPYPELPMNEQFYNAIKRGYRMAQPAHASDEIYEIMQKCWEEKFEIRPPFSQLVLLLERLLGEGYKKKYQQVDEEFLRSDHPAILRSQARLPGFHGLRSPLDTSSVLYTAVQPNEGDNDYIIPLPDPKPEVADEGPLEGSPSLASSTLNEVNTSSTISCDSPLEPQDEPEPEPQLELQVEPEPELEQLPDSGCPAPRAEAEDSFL
Experimental: For the phosphorylation assay according to the invention, HR5 cells were grown to confluency in 96-well microtiter plates under standard tissue culture conditions, followed by serum-starvation for 16 hours. Quiescent cells were incubated at 37° C. without or with increasing concentrations of the test compound (0.01-30 uM) for 30 minutes followed by the addition of 8 nM PDGF BB for 10 minutes. Cells were lysed in 100 mM Tris, pH7.5, 750 mM NaCl, 0.5% Triton X-100, 10 mM sodium pyrophosphate, 50 mM NaF, 10 ug/ml aprotinin, 10 ug/ml leupeptin, 1 mM phenylmethylsulfonyl fluoride, 1 mM sodium vanadate, and the lysate was cleared by centrifugation at 15,000×g for 5 minutes. Clarified lysates were transferred into a second microtiter plate in which the wells were previously coated with 500 ng/well of 1B5B11 anti-β-PDGFR mAb, and then incubated for two hours at room temperature. After washing three times with binding buffer (0.3% gelatin, 25 mM Hepes pH 7.5, 100 mM NaCl, 0.01% Tween-20), 250 ng/ml of rabbit polyclonal anti-phosphotyrosine antibody (Transduction Laboratory) was added and plates were incubated at 37° C. for 60 minutes. […] Wells were washed prior to adding ABTS (Sigma), and the rate of substrate formation was monitored at 650 nm. […]

For assay [2], the target named is T1, β-PDGFR. In words: HR5 phosphorylation assay (CHO cells overexpressing human β-PDGFR). Type of assay: cell-based. The settings on record: 8 nM PDGF BB for 10 minutes, PDGF receptor phosphorylation. Also noted: host or cells: CHO cells (HR5 line).
Experimental: The HR5 cell line is a cell line of CHO cells engineered to overexpress human β-PDGFR, which cell line is available from the ATCC. The expression level of β-PDGFR in HR5 cells is around 5×10^4 receptor per cell. For the phosphorylation assay according to the invention, HR5 cells were grown to confluency in 96-well microtiter plates under standard tissue culture conditions, followed by serum-starvation for 16 hours. Quiescent cells were incubated at 37° C. without or with increasing concentrations of the test compound (0.01-30 uM) for 30 minutes followed by the addition of 8 nM PDGF BB for 10 minutes. Cells were lysed in 100 mM Tris, pH7.5, 750 mM NaCl, 0.5% Triton X-100, 10 mM sodium pyrophosphate, 50 mM NaF, 10 ug/ml aprotinin, 10 ug/ml leupeptin, 1 mM phenylmethylsulfonyl fluoride, 1 mM sodium vanadate, and the lysate was cleared by centrifugation at 15,000×g for 5 minutes. Clarified lysates were transferred into a second microtiter plate in which the wells were previously coated with 500 ng/well of 1B5B11 anti-β-PDGFR mAb, and then incubated for two hours at room temperature. […] Wells were washed prior to adding ABTS (Sigma), and the rate of substrate formation was monitored at 650 nm.

For the compound `c1nc(N2CCNCC2)c2ccc(OCCN3CCCCC3)cc2n1` [Example 1, 4-piperazinyl-7-(2-piperidylethoxy)quinazoline], the values for the IC50 in assay [1] and in assay [2] were 103 nM and 150 nM, respectively.

The record behind these values is patent US6956039B2, “Nitrogenous heterocylic compounds” (Millennium Pharmaceuticals, Inc., priority 2000, dated 2005).
